Experimental data reported in publication PMC2873402, “Discovery of High-Affinity Protein Binding Ligands – Backwards” (PLoS ONE, 2010).
Bridge positions count the residues as written; N and C are the ends. Ends that are not written are not given here. I, II: the chains in the order shown. * marks the point of attachment. StBu = CC(C)(C)S*

Experiments:
[1] = test system: AKT2; assay: Protein array (ProtoArray), binding to AKT2; parameters: species or system human
Description: (§1) Synbodies were screened on an Invitrogen ProtoArray™ (Life Technologies, Carlsbad, CA, USA) detected with Alexa-555 labeled streptavidin (Life Technologies), and scanned using a Perkin Elmer ProScan Array HTP. The spots were analyzed using GenePix Pro (Molecular Devices, Sunnyvale, CA, USA) and data were processed using Genespring GX (Agilent Technologies, Santa Clara, CA, USA). Synbodies were labeled with biotin using either Maleimide-PEG2-Biotin (Thermo Pierce, Rockford, IL, USA) to label the C-terminal cysteine or biotin was incorporated during synbody synthesis by replacing the C-terminal cysteine with Lys-biotin (Novabiochem, San Diego, CA, USA). Synbodies were screened on the array using the recommended protocol with the following modifications: the arrays were blocked with 5 mL blocking buffer (50mM HEPES pH 7.5, 200 mM NaCl, 0.08% Triton X-100, 25% Glycerol, 20mM reduced Glutathione, 1.0mM DTT, 1% BSA) for 90 min. A 200 nM synbody solution was incubated in probing buffer (1× PBS, 1% BSA, 0.1% Tween) for 90 minutes. Slides were dried by centrifugation at 200g for 1 minute and scanned at 100% laser power and 70% photomultiplier voltage. The gal file was obtained for each array by submitting the barcode of the array to www.invitrogen.com/protoarray.
(§2) Heat maps were constructed using median-normalized data from each ProtoArray. […]

[2] = test system: AKT3; assay: Protein array (ProtoArray), binding to AKT3; parameters: species or system human
Description: as §1, §2

[3] = molecular target: T1, AKT1 (Homo sapiens, UniProt P31749); assay: IP of AKT1 spiked into A549 cell lysate, Western Blot; format: binding; parameters: purchased Life Technologies; details: 200 ng AKT1 (33.2 nM)
Description: As a preliminary test of specificity, 200 ng of AKT1 (33.2 nM) was spiked into increasing amounts of cell lysate prepared from un-stimulated A549 lung epithelial cells and streptavidin beads coated with 25 pmols of synbody (7.6∶1 synbody-to-AKT1 ratio) were used to pull down AKT1 using the same IP procedure and Western Blot protocol as before.
(§3) For all IP experiments, either a 1 µM or 250 nM solution of biotin-conjugated synbody was captured on 20 µL of streptavidin coated paramagnetic M-280 Dynabeads (Life Technologies) according to the manufacturers protocol. Synbody coated beads were washed five times with 1 mL of 100 mM phosphate buffered saline containing 0.05% Tween-20 (PBST) and incubated overnight at 4°C with shaking in the desired amount of target protein in A549 cell lysate. For Kd determination experiments, serial dilutions of AKT1 or ABL1 were prepared in binding buffer. After binding, beads were washed five times with 1 mL of PBST and heated at 70°C in 20 µL of 1× LDS loading buffer (Invitrogen) for 10 minutes. The samples were analyzed by SDS-PAGE gel with Western Blot detection using the appropriate antibody and imaged on a GE Healthcare Typhoon Trio.

[4] = molecular target: T1, AKT1; assay: IP of AKT1 from pre-cleared A549 lysate with silver stain detection; format: binding; parameters: purchased Life Technologies
Description: However, to more rigorously test the specificity of the synbody, we reduced the molar ratio of synbody to protein to approximately 2 to 1 and performed an IP to examine other proteins that were non-specifically bound by the synbody. In this experiment, 400 ng of AKT1 (66.4 nM) was spiked into 100 and 500 µg of A549 cell lysate pre-cleared on streptavidin beads (Figure S3) and precipitated using streptavidin beads coated with 15 pmols of synbody. Synbody coated beads and uncoated streptavidin beads were incubated overnight, washed, and bound proteins were eluted. Elution samples were split with half of the sample analyzed by silver stain and half analyzed by Western Blot (Figure 3E).
as §3
Due to the high-level of A549 lysate protein binding to the magnetic beads used previously, we pre-cleared the cell lysate prior to IP. This was accomplished by overnight incubation of 1 mL of lysate (∼5 mg/mL) with 1 mL of streptavidin beads. The supernatant was removed and this lysate was used in subsequent experiments. […] One half of each elution sample was analyzed by SDS-PAGE followed by staining using a SNAP Silver Stain kit (Thermo Pierce) while the other half of the sample was analyzed by SDS-PAGE with Western Blot detection as before.

[5] = molecular target: T1, AKT1; assay: IP of 35S-labeled AKT1, scintillation counting; format: binding; parameters: N-terminal vector leader of pEXP5-NT (6xHis + TEV site by own knowledge of the vector); made in house; host or cells: Expressway Mini Cell-Free Expression System (in vitro translation); details: AKT1 approximately 3% of total protein
Description: In order to validate the Kd determined by SPR, an additional IP was performed using ^35S-labeled AKT1 produced by in vitro translation (IVT). The translation mixture contained 12 µg of AKT1 in the presence of 400 µg of total protein and a concentration series of ^35S-labeled AKT1 from 41.5 nM to 80 pM was prepared by dilution of the 35-S-labeled AKT1 IVT mixture. The synbody was then used to precipitate the ^35S-labeled AKT1 in the same manner as before. Bound AKT1 was quantified using liquid scintillation counting and plotted as a function of AKT1 concentration.
AKT1 DNA was assembled by ligation of 42-bp oligonucleotides by PCR according to a procedure developed internally (Borovkov, et al. submitted). The PCR product was cloned into pEXP5-NT topo expression vector (Life Technologies), purified using a Qaigen PCR purification kit, and quantified by Nanodrop spectrophotometer (Thermo Scientific). […]
For all IP experiments, either a 1 µM or 250 nM solution of biotin-conjugated synbody was captured on 20 µL of streptavidin coated paramagnetic M-280 Dynabeads (Life Technologies) according to the manufacturers protocol. […] The samples were analyzed by SDS-PAGE gel with Western Blot detection using the appropriate antibody and imaged on a GE Healthcare Typhoon Trio.

T1 sequence (P31749 whole entry): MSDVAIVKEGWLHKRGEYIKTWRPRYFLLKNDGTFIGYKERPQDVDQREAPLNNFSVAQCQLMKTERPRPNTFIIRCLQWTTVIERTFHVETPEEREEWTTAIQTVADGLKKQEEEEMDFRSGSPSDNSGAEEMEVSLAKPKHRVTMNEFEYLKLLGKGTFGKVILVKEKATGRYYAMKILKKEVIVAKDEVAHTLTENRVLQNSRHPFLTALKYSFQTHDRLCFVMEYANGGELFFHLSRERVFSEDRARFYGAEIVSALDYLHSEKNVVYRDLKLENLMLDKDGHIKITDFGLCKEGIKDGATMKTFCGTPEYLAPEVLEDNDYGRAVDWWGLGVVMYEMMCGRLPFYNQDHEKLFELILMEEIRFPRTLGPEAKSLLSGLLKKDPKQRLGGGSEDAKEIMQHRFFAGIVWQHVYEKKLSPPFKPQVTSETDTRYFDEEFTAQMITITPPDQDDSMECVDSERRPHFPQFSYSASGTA

Substance: I: AHKVVPQRQIRHAYNRYGSGKC(StBu)-NH2 / II: FRGWAHIFFGPHVIYRGGSG (amide I:21-II:C) [synbody]
- binding to AKT2 on protein array [1]: little binding
- binding to AKT3 on protein array [2]: little binding
- excess cell extract in the presence of which AKT1 is precipitated ([3]; 25 pmols synbody (7.6:1), A549 lysate): 2,500 fold excess
- precipitation of AKT1 from A549 lysate ([3]; 25 pmols synbody (7.6:1 synbody-to-AKT1), increasing A549 lysate): successfully pulled AKT1 out of the cell lysate in the presence of an increasing concentration of A549 lysate with little reduction in AKT1 signal intensity
- proteins precipitated (silver stain) ([4]; 400 ng AKT1 (66.4 nM) in pre-cleared A549 lysate, 500 µg (5mg/ml), 15 pmols synbody (approx. 2:1)): AKT1 was precipitated along with two other prominent proteins
- dominant band precipitated ([4]; 400 ng AKT1 in 100 or 500 µg pre-cleared A549 lysate, Western Blot confirmation): the dominant band precipitated by the synbody was AKT1
- specificity ([4]; IP silver stain, A549 lysate): useful, though not perfect specificity
- specificity for AKT1 in IVT lysate [5]: specifically binds AKT1 from a complex background
